Tested on: clot formation in vessels of the mesenterium
Assay: electrically induced clot formation in mesenteric vein, clot size monitored by intravital microscope
Type: in vivo, rat
Details: 2.5 mg/kg acetylsalicylic acid or 5 mg/kg dipyridamole p.o. alone; FIGS. 5 and 6
Protocol: The antithrombotic activity achieved with a simultaneous oral administration, according to the invention, of 5 mg/kg of dipyridamole and 0.05 mg/kg of acetylsalicylic acid (weight ratio of dipyridamole to acetylsalicylic acid=100) and, by comparison, during sequential oral administration (according to European Application No. 85 108 761.9) of 5 mg/kg of dipyridamole and 5 mg/kg of acetylsalicylic acid to rats (FW 49) with a body weight of from 60 to 80 g before the start of the experiment was investigated by applying a clotting stimulus to vessels of the mesenterium and by monitoring the size of the clots over a period of time. Groups of 5 animals were used. […] An interval of 1 hour was left between the simultaneous oral administration of the substances according to the invention and the application of the clot or the actual carrying out of the measurements. […]
Using an intravital microscope to monitor the process, a platinum electrode was placed on an outer blood vessel wall of the mesenterium. […] The size of the clot is measured at 10 second intervals and later at 30 second intervals over a period of up to 20 minutes after the stimulation of the blood vessel and is given as the size of the clot (at right angles to the blood vessel wall) as a percentage of the internal diameter of the blood vessel.

| SMILES | reduction in the clot size, single substance |
| --- | --- |
| CC(=O)Oc1ccccc1C(=O)O [Acetylsalicylic acid, acetylsalicylic acid] | do not bring about any significant reduction in the clot size |
| OCCN(CCO)c1nc(N2CCCCC2)c2nc(N(CCO)CCO)nc(N3CCCCC3)c2n1 [Dipyridamole, 2,6-bis-(diethanolamino)-4,8-dipiperidino-(5,4-d)-pyrimidine] | do not bring about any significant reduction in the clot size |

From patent US6015577A, “Pharmaceutical compositions containing dipyridamole or mopidamol and acetylsalicylic acid or the physiologically acceptable salts thereof, processes for preparing them and their use in treating clot formation” (Thomae GmbH; Dr. Karl, priority 1986, dated 2000)
